Data as given in patent publication US20140212478A1, “METHOD FOR PREVENTING AND/OR TREATING PERIODONTAL DISEASE” (priority 2008, published 2014).
“Also recorded” adds a separate entry of the source.

Test system: dental root-periodontal tissue of excised first molar (lower jaw)
Assay: Effect on dental root-periodontal tissue formation: honokiol-impregnated agarose bead embedded into dental pulp of excised mouse first molar, graft culture under kidney capsule of host mice
Type: in vivo, C57BL/6 mice
Text: Dulbecco' phosphate buffered saline (hereinbelow, it is some times referred to as “D-PBS”) was purchased from Dainippon Pharmaceuticals Inc. Affi-Gel agarose beads (Affigel heparin Cat. No.: 15306173) were purchased from Bio-Rad Laboratories, Inc. Five days age of C57BL/6 mice were purchased from Sankyo Labo Service Corporation. As host mice, 10 to 15 weeks age of C57BL/6 mice (female) were purchased from Sankyo Labo Service Corporation, and used two per group. Since it was know that a kidney and an anterior chamber of eye hardly have immune response among organs in adult mice, it was not necessary to especially use nude mice in graft culture.
Honokiol-impregnated agarose beads were prepared as follows. Honokiol was diluted to the concentration of 10 μM by using D-PBS. The agarose beads were washed with D-PBS.
After washing, four agarose beads were placed in the 1.5 mL tube and 100 μL of the honokiol solution was added into it. Then, the tube was incubated at room temperature for 45 minutes to impregnated honokiol into the agarose beads. As mentioned above, absorptive beads including heparin honokiol impregnation (hereinbelow, it is sometimes referred to as “honokiol-impregnated agarose beads”) were prepared.
Alternatively, another four agarose beads were placed in the 1.5 mL tube and 100 μL of D-PBS was added into it to prepare D-PBS-impregnated agarose beads were prepared, and they were used as negative control.
Five days age of […] mice, where their dental root-periodontal tissue was just before formed, were anesthetized and sacrificed by decapitation. After excised lower jaw of them, the first molars in the lower jaw were excised with dental follicles. One of the honokiol-impregnated agarose beads prepared in the (5-1) was embedded into the dental pulp of the excised teeth, the first molar in the lower jaw.
As the negative control, one of the D-PBS-impregnated agarose beads prepared was embedded into the dental pulp of another excised teeth, the first molar in the lower jaw.
The excised teeth under which the honokiol-impregnated agarose bead was embedded, and that under which the D-PBS impregnated agarose bead was embedded, were respectively grafted under capsule of kidney of the host mice. The host mice were bred under the condition of 12 hours lighting, at room temperature, 25° C., free taking feed and water for three weeks.
After three weeks from grafting of the excised tooth, the host mice were sacrificed by dislocation of cervical vertebrae to excise the kidney to recover the cultured excised tooth (grafted tooth).
Formation of dental root-periodontal tissue (extension), coat of the dental root, and bone of the grafted tooth, which was recovered, were observed under stereoscopic microscope, and then subjected to tomography by using micro CT. […]

honokiol
extension of dental root (dental root-periodontal tissue formation) (agarose bead impregnated with 10 μM honokiol in D-PBS, embedded into dental pulp, three weeks graft culture under kidney capsule, stereoscopic microscope and micro CT, compared to D-PBS negative control): prominent extension of dental root; also recorded: excellent promotion effect for dental root-periodontal tissue formation (extension) | bone formation around the newly formed dental root (agarose bead impregnated with 10 μM honokiol, embedded into dental pulp, three weeks graft culture under kidney capsule, all graft samples with dental root extension): bone formation around the newly formed dental root were also observed | periodontal ligament-like structure between the dental root and the bone formed (agarose bead impregnated with 10 μM honokiol, embedded into dental pulp, three weeks graft culture, soft X-ray / micro CT section): structure similar to periodontal ligamentous band was observed | promotion effect for surrounding tissue (periodontal ligament and alveolar bone), overall conclusion (pharmaceutical preparation comprising honokiol as the active ingredient, conclusion from graft culture results): promotion effect for surrounding tissue such as the periodontal ligament and alveolar bone
